Results reported in ChEMBL document CHEMBL1129522, “Inhibitors of acyl-CoA:cholesterol O-acyltransferase. 17. Structure-activity relationships of several series of compounds derived from N-chlorosulfonyl isocyanate” (J Med Chem, 1996).

Assays:
[1] = molecular target: T1, Sterol O-acyltransferase 1 (Rattus norvegicus) (UniProt O70536); experiment: Acute in vivo activity was measured by the total plasma cholesterol concentration levels(TC) at dose 3 mg/kg; type: functional, organism-based; design: dose 3 mg/kg
T1 sequence (whole entry): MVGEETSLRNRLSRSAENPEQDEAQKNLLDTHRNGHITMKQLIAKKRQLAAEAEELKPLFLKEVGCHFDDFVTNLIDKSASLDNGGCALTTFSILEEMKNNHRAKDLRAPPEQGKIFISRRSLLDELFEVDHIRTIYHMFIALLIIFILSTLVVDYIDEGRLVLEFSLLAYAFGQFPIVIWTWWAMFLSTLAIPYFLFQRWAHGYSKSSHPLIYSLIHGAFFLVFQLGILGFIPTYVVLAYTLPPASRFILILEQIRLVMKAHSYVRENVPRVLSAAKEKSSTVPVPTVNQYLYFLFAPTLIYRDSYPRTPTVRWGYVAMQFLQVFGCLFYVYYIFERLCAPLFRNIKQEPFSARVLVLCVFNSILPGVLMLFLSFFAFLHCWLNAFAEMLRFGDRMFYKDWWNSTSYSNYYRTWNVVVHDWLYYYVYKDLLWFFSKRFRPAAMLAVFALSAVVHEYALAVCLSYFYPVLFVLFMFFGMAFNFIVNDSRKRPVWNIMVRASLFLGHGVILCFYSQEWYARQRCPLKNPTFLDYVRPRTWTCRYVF

Rattus norvegicus = experiment: Acute in vivo activity measured by total plasma cholesterol concentration levels (TC) at 30 mg/kg dose; type: functional
[2] = molecular target: T1, Sterol O-acyltransferase 1 (Rattus norvegicus); experiment: Chronic in vivo activity was measured by the concentration of high density lipoproteins (HDL) in cholesterol fed rats; type: functional, organism-based
[3] = molecular target: T1, Sterol O-acyltransferase 1 (Rattus norvegicus); experiment: Chronic in vivo activity was measured by the total cholesterol concentration levels in cholesterol fed rats; type: functional, organism-based
[4] = molecular target: T2, Sterol O-acyltransferase 1 (Rattus norvegicus, UniProt O70536); experiment: In vitro inhibitory activity against acyl coenzyme A:cholesterol acyltransferase 1 in microsomes of rat liver
T2 sequence (O70536 whole entry): T1 sequence (whole entry)

| Structure (SMILES) | Delta TC [1] [%] | Delta TC (Rattus norvegicus) [%] | Delta HDL [2] [%] | Delta TC [3] [%] | IC50 [4] [µM] |
| --- | --- | --- | --- | --- | --- |
| CCCCCCCCN(CCCCCCCC)S(=O)(=O)NC(=O)Nc1c(C(C)C)cccc1C(C)C | -38 | -53 | 150 | -56 | 1.9 |
| CC(C)c1cc(C(C)C)c(OC(=O)NS(=O)(=O)Oc2c(C(C)C)cccc2C(C)C)c(C(C)C)c1 | -57 | -79 | 153 | -74 | 14 |
| COc1cccc(OC)c1OS(=O)(=O)NC(=O)Oc1c(C(C)C)cccc1C(C)C | -63 | -70 | 208 | -62 | > 50 |
| CC(C)c1cc(C(C)C)c(OS(=O)(=O)NC(=O)Oc2c(C(C)C)cccc2C(C)C)c(C(C)C)c1 | -63 | -67 | 295 | -61 | 29 |
| CCCCCCCCCCCCOS(=O)(=O)NC(=O)Oc1c(C(C)(C)C)cc(C)cc1C(C)(C)C | -41 | -65 | 23 | -33 | 52 |
| CC(C)c1cccc(C(C)C)c1OS(=O)(=O)NC(=O)Oc1c(C(C)(C)C)cc(C(C)(C)C)cc1C(C)(C)C | -69 | -76 | 108 | -78 | 26 |
| CC(C)c1cccc(C(C)C)c1OS(=O)(=O)NC(=O)Oc1c(C(C)C)c(C(C)C)c(F)c(C(C)C)c1C(C)C | -47 | -71 | 208 | -74 | 13 |
| CC(C)c1cccc(C(C)C)c1NC(=O)NS(=O)(=O)N(Cc1ccccc1)Cc1ccccc1 | -18 | -36 | 183 | -28 | 2.2 |
| COc1cc(OC)c(OS(=O)(=O)NC(=O)Oc2c(C(C)C)cccc2C(C)C)c(OC)c1 | -37 | -61 | 62 | -37 | > 50 |
| CC(C)c1cc(C(C)C)c(OC(=O)NS(=O)(=O)Oc2c(C(C)C)cc(C(C)C)cc2C(C)C)c(C(C)C)c1 | -32 | -65 | 129 | -62 | 22 |
| CCCCCCCCCCCCOS(=O)(=O)NC(=O)Oc1c(C(C)C)cccc1C(C)C | -63 | -68 | 31 | -56 | 13 |
| CC(C)c1cc(O)cc(C(C)C)c1OC(=O)NS(=O)(=O)Oc1c(C(C)C)cccc1C(C)C | -5 | -55 | 95 | -25 | > 50 |
| CC(C)c1ccc(C(C)C)c(NC(=O)NS(=O)(=O)Oc2c(C(C)C)cccc2C(C)C)c1 | -1 | -43 | 5 | -43 | 8.7 |
| CCCN(CCC)S(=O)(=O)NC(=O)Nc1c(C(C)C)cccc1C(C)C | -51 | -60 | 78 | -53 | 1.1 |
| CC(C)c1cccc(C(C)C)c1NC(=O)NS(=O)(=O)N(C(C)C)C(C)(C)C | -55 | -17 | 43 | -48 | 0.14 |
| CC(C)c1cc(C(C)(C)C)cc(C(C)C)c1OC(=O)NS(=O)(=O)Oc1c(C(C)C)cccc1C(C)C | -55 | -58 | 177 | -72 | 8.8 |
| COc1cc(C(C)C)c(OC(=O)NS(=O)(=O)Oc2c(C(C)C)cccc2C(C)C)c(C(C)C)c1 | 1 | -56 | 8 | -12 | > 25 |
| CC(C)c1cccc(C(C)C)c1OS(=O)(=O)NC(=O)Oc1c(C(C)(C)C)cccc1C(C)(C)C | -50 | -70 | 25 | -64 | 12 |
